The source made the active and inactive calls. No cut-off for these calls is given here.
The compounds below were run on Human immunodeficiency virus 1 (assay: Antiviral activity against HIV1 in human cells by XTT assay).
Format: functional, organism-based

**Q.** With `CC(C)=CCC[C@]1(C)C=Cc2c(ccc3c2C(=O)C(O)=C(C)C3=O)O1` as the compound, how does the Activity read?
**A.** Its Activity is “inactive”.

**Q.** With `COC1=C(C)C(=O)c2ccc3c(c2C1=O)C=C[C@@](C)(CCCC(C)(C)O)O3` as the compound, how does the Activity read?
**A.** The Activity was “inactive”.

**Q.** Which Activity does the source give for `COC1=C(C)C(=O)c2ccc3c(c2C1=O)C=C[C@@](C)(CCC=C(C)C)O3` here?
**A.** The Activity was “inactive”.

**Q.** `CC1=C(O)C(=O)c2c(ccc3c2C=C[C@@](C)(CCCC(C)(C)O)O3)C1=O` was tested. Which Activity did it give?
**A.** The Activity was “inactive”.

**Q.** Which Activity does the source give for `CC(C)=CCC/C(C)=C/Cc1c(O)ccc2c1C(=O)C(O)=C(C)C2=O` here?
**A.** Its Activity is “inactive”.

**Q.** Which Activity does the source give for `COc1cc2c(cc1O)C(=O)C(C)=C(C)C2=O` here?
**A.** Its Activity is “inactive”.
